Reference: patent US6869933B2, “HIV-specific CTL inducing peptides and medicaments for preventing or treating AIDS comprising the peptides” (Ajinomoto Co., Inc., priority 1999, dated 2005)
Marks after values point to notes of the source that are not given here.

Assays:
[1] = tested on: HLA-A*1101 positive Tm EBV transformed cells pulsed with the peptide; assay: Induction of specific CTL after a single stimulation with the peptides in PBMC from HIV-subtype E-seropositive patients carrying HLA-A11; settings: for patients from whom the specific CTL could be induced: HIV-1 subtype E infected patients carrying HLA-A11
[2] = tested on: HLA-A*1101 positive Tm EBV transformed cells pulsed with the peptide; assay: Induction of specific CTL by a single stimulation with the peptides in PBL from HIV-seropositive patients carrying HLA-A11 (51Cr release CTL assay); settings: for patients in whom peptide-specific CTL activity was induced: six HIV-1 seropositive patients carrying HLA-A*1101
[3] = tested on: HLA-A*1101 positive Tm EBV transformed cells pulsed with the peptide; assay: Induction of specific CTL after a single stimulation with the peptides in PBMC from HIV-subtype B-seropositive patients carrying HLA-A11
[4] = tested on: C1R-A*1101 cells infected with vaccinia virus expressing HIV-1 Pol protein or Env protein; format: cell-based, human
[5] = patient TT-005, effector:target 40:1, peptide 1 μM
[6] = patient TT-007, effector:target 40:1, peptide 1 μM
[7] = patient TT-008, effector:target 40:1, peptide 1 μM
[8] = patient TT-009, effector:target 40:1, peptide 1 μM
[9] = patient TU-002, effector:target 40:1, peptide 1 μM
[10] = patient TU-003, effector:target 40:1, peptide 1 μM
[11] = patient TU-007, effector:target 40:1, peptide 1 μM
[12] = patient five, effector:target 5:1, peptide 1 μM
[13] = patient five, effector:target 40:1, peptide 1 μM
[14] = patient four, effector:target 5:1, peptide 1 μM
[15] = patient four, effector:target 40:1, peptide 1 μM
[16] = patient one, effector:target 5:1, peptide 1 μM
[17] = patient one, effector:target 40:1, peptide 1 μM
[18] = patient six, effector:target 5:1, peptide 1 μM
[19] = patient six, effector:target 40:1, peptide 1 μM
[20] = patient three, effector:target 5:1, peptide 1 μM
[21] = patient three, effector:target 40:1, peptide 1 μM
[22] = patient two, effector:target 5:1, peptide 1 μM
[23] = patient two, effector:target 40:1, peptide 1 μM
[24] = patient KI-005, effector:target 40:1, peptide 1 μM
[25] = patient KI-015, effector:target 40:1, peptide 1 μM
[26] = patient KI-030, effector:target 40:1, peptide 1 μM
[27] = patient KI-035, effector:target 40:1, peptide 1 μM
[28] = patient KI-036, effector:target 40:1, peptide 1 μM

Row | Sequence | patients from whom the specific CTL could be induced [1] | relative cell lysis (%) [1, 5] | relative cell lysis (%) [1, 6] | relative cell lysis (%) [1, 7] | relative cell lysis (%) [1, 8] | relative cell lysis (%) [1, 9] | relative cell lysis (%) [1, 10] | relative cell lysis (%) [2, 12] | relative cell lysis (%) [2, 13] | relative cell lysis (%) [2, 14] | relative cell lysis (%) [2, 15] | relative cell lysis (%) [2, 16] | relative cell lysis (%) [2, 17] | relative cell lysis (%) [2, 18] | relative cell lysis (%) [2, 19] | relative cell lysis (%) [2, 20] | relative cell lysis (%) [2, 21] | relative cell lysis (%) [2, 22] | relative cell lysis (%) [2, 23] | patients in whom peptide-specific CTL activity was induced [2] | other results
1 | AFDLSFFLK (Human immunodeficiency virus type 1) [Nef 84-9-2F6F] | six of seven | −1.3% | 24.6% | 75.5% | 76.5% | 15.4% | 41.2% | – | – | – | – | – | – | – | – | – | – | – | – | – | relative cell lysis (%) [1, 11]: 64.2%
2 | AIFQSSMTK (Human immunodeficiency virus type 1) [Pol313-321] | – | – | – | – | – | – | – | −3.7% | 2.8% | 26.8% | 53.5% | 3.7% | 13.6% | 1.1% | 0.7% | 2.3% | −2.4% | 8.2% | 31.1% | three patients | –
3 | ALDLSHFLK (Human immunodeficiency virus type 1) [Nef 84-9-2L] | – | – | – | – | – | – | – | – | – | – | – | – | – | – | – | – | – | – | – | – | patients from whom the specific CTL could be induced ([3]; HIV-1 subtype B infected patients carrying HLA-A11): three of five; relative cell lysis (%) [3, 24]: 68.3%; relative cell lysis (%) [3, 25]: 6.3%; relative cell lysis (%) [3, 26]: 5.5%; relative cell lysis (%) [3, 27]: 16.4%; relative cell lysis (%) [3, 28]: 50.4%
4 | AVDLSHFLK (Human immunodeficiency virus type 1) [Nef 84-9, reference compound] | – | – | – | – | – | – | – | – | – | – | – | – | – | – | – | – | – | – | – | – | relative cell lysis (%) [3, 24]: 25.3* %; relative cell lysis (%) [3, 25]: 68.6%; relative cell lysis (%) [3, 26]: 6.6%; relative cell lysis (%) [3, 27]: 5.8%; relative cell lysis (%) [3, 28]: 16.5%
5 | DPNPQEVVL (Human immunodeficiency virus type 1) [Env77-85] | – | – | – | – | – | – | – | −3.6% | 1.7% | 1.5% | 2.5% | −0.1% | 0.2% | 0.0% | 0.5% | −2.8% | −0.3% | −0.4% | −1.1% | – | –
6 | IYQEPFKNLK [Pol496-505] | – | – | – | – | – | – | – | −2.8% | 4.9% | 4.6% | 8.00% | −2.9% | −0.6% | 3.0% | 12.9% | 3.2% | 5.1% | 2.6% | 2.5% | one of six patients | –
7 | QIIEELIKK (Human immunodeficiency virus type 1) [Pol 675-9-5E] | five of seven | 3.4* % | 55.1% | 23.4% | 63.8% | 3.4% | 0.2% | – | – | – | – | – | – | – | – | – | – | – | – | – | relative cell lysis (%) [1, 11]: 5.7%
8 | QIIEKLIEK (Human immunodeficiency virus type 1) [Pol 675-9-5K8E] | two of six | −4.1% | 21.7% | 10.3% | 4.5% | 5.6% | −5.6% | – | – | – | – | – | – | – | – | – | – | – | – | – | –
9 | QIYAGIKVK [SF2-Pol424-9] | – | – | – | – | – | – | – | −1.7% | −3.7% | 11.7% | 27.4** % | 3.1% | −0.2% | 2.0% | 2.3% | −3.3% | 7.0% | −0.2% | 4.9% | one of six patients | killing of vaccinia-infected target cells by peptide-specific CTL clones (endogenous processing and presentation by HLA-A*1101) [4]: contain HLA-A*1101 restricted HIV-1 specific CTL epitopes
10 | SVITQACPK [SF2-Env202-9] | – | – | – | – | – | – | – | – | – | – | – | – | – | – | – | – | – | – | – | – | killing of vaccinia-infected target cells by peptide-specific CTL clones (endogenous processing and presentation by HLA-A*1101) [4]: contain HLA-A*1101 restricted HIV-1 specific CTL epitopes
